The target of this experiment is α7 nAChR Subtype (Rattus norvegicus, UniProt Q05941). Type of experiment: binding. The conditions noted are these: read-out: KD of radioligand from saturation curves.

Experimental findings from US7514567B2 (priority 2003, dated 2009) are described below.

Sequence of α7 nAChR Subtype (Q05941 23-502 limits assumed): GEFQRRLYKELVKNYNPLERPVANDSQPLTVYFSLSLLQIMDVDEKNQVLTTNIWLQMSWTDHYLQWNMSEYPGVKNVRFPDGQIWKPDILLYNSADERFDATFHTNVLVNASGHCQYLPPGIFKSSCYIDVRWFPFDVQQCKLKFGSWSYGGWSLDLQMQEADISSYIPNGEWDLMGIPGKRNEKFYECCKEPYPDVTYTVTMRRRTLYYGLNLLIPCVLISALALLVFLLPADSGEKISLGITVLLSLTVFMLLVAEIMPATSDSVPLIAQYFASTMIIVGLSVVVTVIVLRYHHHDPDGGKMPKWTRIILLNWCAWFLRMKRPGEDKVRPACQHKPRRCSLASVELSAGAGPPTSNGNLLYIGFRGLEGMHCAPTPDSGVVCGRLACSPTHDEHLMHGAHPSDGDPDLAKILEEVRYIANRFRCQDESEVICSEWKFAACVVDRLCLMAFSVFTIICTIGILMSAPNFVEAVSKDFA

On to [^125I]-α-Bungarotoxin [[^125I]-α-BTX], for which the Kd came out at 1.67 nM.
